Test results published in patent US12247223B2, “Human liver-like three-dimensional structure, method for evaluating hepatotoxicity and human liver-like complex” (CYFUSE BIOMEDICAL K.K., priority 2019, dated 2025).

Columns and labels:
[1] = tested on: human liver-like three-dimensional construct A′; settings: 10 μmol/l
Protocol: (§1) A DMSO solution of phenytoin was prepared. The obtained drug-containing DMSO solution was added to the culture medium of the human liver-like three-dimensional construct A′ fabricated in Experimental example 3′ such that the concentration of the drug in the medium was 10 μmol/l. The medium was sampled up to 6 days following the drug addition, and the metabolic products in the medium were subjected to separation and structural analysis by a LC/MS/MS method. The abbreviations of the metabolites stand for the following constructs.
as §1, with “Torcetrapib” for “phenytoin”, “method.” for “method. The abbreviations of the metabolites stand for the following constructs.”

[2] = tested on: human liver-like three-dimensional construct A; test: Number and particle-size distribution of exosome particles (qNano); type: cell-based; settings: three days after drug addition
Protocol: (§2) The culture medium of Experimental example 5 was centrifuged at 4° C. and 2,000×g for 20 minutes, followed by centrifugation of the collected supernatant at 15,000×g for 30 minutes. To 2.2 mL of each collected sample solution, 1.1 mL of ExoCap Ultracentrifugation/Storage Booster (registered trademark) and 7.7 mL of ultrapure water were added. The resultant was homogeneously stirred and subjected to ultracentrifugation protocol (35,000 rpm, 70 minutes,4° C.). […]
(§3) The number and the particle-size distribution of the exosome particles were measured using qNano (nanoparticle multi-analyzer). In addition, expression of CD9 in the collected exosomes was confirmed by Western blotting. miRNAs contained in a sample extracted from the exosomes using a RNA extraction kit were measured by digital PCR. Furthermore, microRNAs contained in the exosomes were taken out and the amounts of miR-122, miR-192 and miR-1 were quantified by a quantitative PCR method. […]
An increase in the particle number concentration of the exosomes contained in the media was observed only three days after the drug addition. Furthermore, miR-122 was detected in the collected exosomes.

[3] = tested on: human liver-like three-dimensional construct A; test: miR-122-5p in exosomes released from the construct, digital PCR; type: cell-based; settings: exosomes from culture medium of Experimental example 5
Protocol: (§4) A DMSO solution of trovafloxacin, a drug that is known to show hepatotoxicity when administered to a human, was prepared. […] Changes in the albumin concentrations in the media up to 24 days following addition of the drug, and the levels of ATP contained in the constructs at the end of the experiment were measured using CellTiter-Glo 3D substrate. Furthermore, tissue sections of the constructs were prepared to obtain images of HE staining and immunostaining for albumin.
as §2, with “added.” for “added. The resultant was homogeneously stirred and subjected to ultracentrifugation protocol (35,000 rpm, 70 minutes,4° C.).”
as §3

[4] = tested on: human liver-like three-dimensional construct A; test: Assessment of hepatotoxicity: albumin concentration in the medium of the construct; type: cell-based; settings: drug 5-1000 μmol/l in medium, up to 24 days
Protocol: as §4
DMSO solutions of 20 kinds of drugs that were known to show hepatotoxicity upon administration to a human were prepared. […] Changes in the albumin concentrations in the media 7 and 14 days following addition of the drug are shown in FIG. 8, in which data were normalized to the albumin concentration in the medium added with DMSO only (taken as 100%).

monolayer culture system = test: Albumin concentration in monolayer culture system (standard of comparison); type: cell-based; settings: monolayer culture as standard of comparison (details omitted)

| particle number concentration of the exosomes in the media [2] | miR-122 in the collected exosomes [3] | albumin concentration, monolayer culture system (monolayer culture system) | SMILES | metabolic products separated and detected by LC [1] | albumin concentration in the medium [4] |
| --- | --- | --- | --- | --- | --- |
|  |  |  | CCOC(=O)N1c2ccc(C(F)(F)F)cc2[C@@H](N(Cc2cc(C(F)(F)F)cc(C(F)(F)F)c2)C(=O)OC)C[C@H]1CC [Torcetrapib] | Two kinds of metabolic products M2 and M5 |  |
| increase | detected | no decrease | N[C@@H]1[C@H]2CN(c3nc4c(cc3F)c(=O)c(C(=O)O)cn4-c3ccc(F)cc3F)C[C@@H]12 [Trovafloxacin, trovafloxacin] |  | drug concentration-dependent decrease |
